The results in this text go back to publication PMC9399028 (European Journal of Nuclear Medicine and Molecular Imaging, 2022).

“Also recorded” adds a separate entry of the source. Where two headings read alike, the source gives them in different places.

Series [1] concerns the target T1, Human recombinant MAO-B (Homo sapiens, UniProt P27338).
T1 construct: purchased Sigma M7441
T1 sequence (P27338 1-520): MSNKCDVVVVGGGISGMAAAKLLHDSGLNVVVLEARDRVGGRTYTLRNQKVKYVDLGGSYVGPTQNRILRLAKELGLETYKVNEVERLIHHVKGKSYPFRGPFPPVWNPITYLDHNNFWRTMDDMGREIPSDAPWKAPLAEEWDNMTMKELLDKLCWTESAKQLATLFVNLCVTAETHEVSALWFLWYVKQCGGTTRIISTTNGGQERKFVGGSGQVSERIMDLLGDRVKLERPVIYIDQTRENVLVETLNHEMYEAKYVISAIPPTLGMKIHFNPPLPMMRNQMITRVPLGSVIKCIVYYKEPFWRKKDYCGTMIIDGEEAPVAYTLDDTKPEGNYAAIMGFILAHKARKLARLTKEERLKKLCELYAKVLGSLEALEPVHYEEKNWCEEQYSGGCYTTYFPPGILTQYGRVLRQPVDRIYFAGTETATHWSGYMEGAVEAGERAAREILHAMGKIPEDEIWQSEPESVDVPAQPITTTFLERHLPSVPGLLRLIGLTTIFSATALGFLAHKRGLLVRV
The series can be described thus: Saturation binding of radioligand to MAO-B microsomes. Here is the method: (§1) The dissociation constant (Kd) was determined by saturation binding, in which the total and non-specific binding of the radioligand was measured at various concentrations. Human recombinant MAO-A, MAO-B, and control microsomes were acquired from Sigma (M7316, M7441, and M7566, respectively). All microsome preparations were at a concentration of 5 mg protein/mL. The reaction mixture (250 μL) contained protein target and ^18F-radioligand, serially diluted in PBS, pH 7.4; assays were performed in PBS (0.01% bovine serum albumin [BSA]) in 96-well polypropylene microplates. […] . Filters were assayed for radioactivity in a Wizard 2480 automatic gamma-counter (Perkin Elmer).

Series [2] deals with T2, Human recombinant MAO-A (Homo sapiens, UniProt P21397).
T2 construct: purchased Sigma M7316
T2 sequence (P21397 1-527): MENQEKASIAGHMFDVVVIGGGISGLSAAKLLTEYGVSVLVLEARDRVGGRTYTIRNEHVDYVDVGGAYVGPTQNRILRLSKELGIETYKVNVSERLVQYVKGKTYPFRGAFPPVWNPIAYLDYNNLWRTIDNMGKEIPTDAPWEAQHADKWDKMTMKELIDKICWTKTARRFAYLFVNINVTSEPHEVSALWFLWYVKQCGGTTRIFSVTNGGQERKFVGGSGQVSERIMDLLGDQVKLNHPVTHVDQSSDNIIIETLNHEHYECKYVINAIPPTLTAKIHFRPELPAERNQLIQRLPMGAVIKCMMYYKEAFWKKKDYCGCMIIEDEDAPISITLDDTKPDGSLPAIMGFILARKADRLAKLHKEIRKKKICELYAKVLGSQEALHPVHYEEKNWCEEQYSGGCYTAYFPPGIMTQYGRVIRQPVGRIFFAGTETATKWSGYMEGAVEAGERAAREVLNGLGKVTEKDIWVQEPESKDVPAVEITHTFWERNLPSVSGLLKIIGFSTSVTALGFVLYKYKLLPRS
The series can be described thus: Saturation binding of radioligand to MAO-A microsomes. Here is the method: as §1

Series [3] has as its target isolated human PHF (Homo sapiens, UniProt P10636). The series can be described thus: Saturation binding of radioligand to isolated PHF. Here is the method:
Purified, soluble PHF was isolated from AD brain tissue using a protocol modified from the procedure described by Jicha et al.. Briefly, homogenized AD cortex underwent high pressure batch–gas expansion using a Parr Cell disruption bomb and centrifuged at […]. […] Bound PHF was eluted with two column volumes of 3M potassium thiocyanate. Isolated PHF was analyzed in a tau MC-1 ELISA and a tau AT8 ELISA, which recognizes tau phosphorylated at both Ser 202 and Thr 205 [3].
as §1

Series [4] deals with T3, MAO-A (Rattus norvegicus, UniProt P21396).
T3 construct: Male wild-type Sprague-Dawley rats; from tissue; host or cells: brain of living wild-type Sprague-Dawley rats
T3 sequence (P21396 1-526): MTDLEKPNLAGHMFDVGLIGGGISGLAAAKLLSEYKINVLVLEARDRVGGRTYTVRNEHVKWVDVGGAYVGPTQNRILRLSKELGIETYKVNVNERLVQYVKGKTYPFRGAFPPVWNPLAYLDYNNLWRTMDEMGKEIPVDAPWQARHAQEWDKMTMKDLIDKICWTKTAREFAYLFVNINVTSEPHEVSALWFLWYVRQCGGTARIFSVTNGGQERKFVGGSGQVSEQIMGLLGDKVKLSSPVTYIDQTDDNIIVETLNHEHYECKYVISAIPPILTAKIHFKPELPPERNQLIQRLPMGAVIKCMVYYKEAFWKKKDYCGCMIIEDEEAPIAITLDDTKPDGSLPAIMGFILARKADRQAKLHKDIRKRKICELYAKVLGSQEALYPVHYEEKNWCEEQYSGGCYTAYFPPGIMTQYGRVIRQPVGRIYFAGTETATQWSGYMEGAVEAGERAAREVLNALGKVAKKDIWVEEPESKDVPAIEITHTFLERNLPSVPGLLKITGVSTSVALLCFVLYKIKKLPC
The series can be described thus: In vivo PET imaging in rats with pargyline pre-treatment. Particulars: for peak brain activity: at 2 min. As to the method: All procedures in this study followed the guidelines of the Institutional Animal Care and Use Committee of the University of the Sciences, Philadelphia, PA. A Siemens Inveon Multimodality Scanner was used for micro-PET/computed tomography (CT) imaging. Male wild-type Sprague-Dawley rats (128 ± 58 g) were anesthetized with 3% isoflurane with oxygen. Rats were administered [^18F]fluoroethyl-harmol or [^18F]flortaucipir via tail vein injection (7.4-14.8MBq [200–400 μCi] in a total volume of 200 μL). For blocking studies, rats were pre-treated with pargyline (Sigma-Aldrich, 50 mg/kg i.p.) 30 min prior to scans; control rats were pre-treated with 0.9% saline injection (Hospira, i.p.). A short high-resolution CT scan was first conducted for anatomical registration, followed by a 120-min dynamic PET scan. PET images were generated for each minute of the acquisition time. Uptake of the tracers was determined by visually drawing regions of interest based on the fused PET/CT images, and corresponding activity values were determined using Inveon Research Workplace software. All values are represented as % injected dose per gram (ID/g). A total of 6 rats were studied (3 control, 3 pre-treated) for [^18F]fluoroethyl-harmol and 8 rats for [^18F]flortaucipir (4 control, 4 pre-treated).

For series [5], the system named is [^18F]flortaucipir binding to normal human brain (temporal cortex sections). The series can be described thus: [^18F]flortaucipir autoradiography competition binding assay with MAO-A and MAO-B inhibitors. Particulars: for IC50: normal (tau NFT negative) human temporal cortex sections, 1.4 nM [^18F]flortaucipir, mild PBS wash, read-out: IC50, inhibition of [^18F]flortaucipir binding (autoradiography). As to the method:
After 60-min incubation at room temperature, PBS washes (4 × 2 min) were used to remove any unbound ligand. […] Signal intensity (counts/pixel) on each section was measured using Multi Gauge V3.0 Imaging software. Total binding was evaluated by nonlinear regression using GraphPad Prism v8 to determine IC50 values.

Series [6] relates to frozen human brain slices from AD donors (PHF tau-rich) and non-AD control donors. The series can be described thus: [^18F]flortaucipir autoradiography, stringent vs mild wash conditions. It is filed as binding. As to the method:
Autoradiography was performed on frozen human brain slices from AD donors (N = 3, PHF tau-rich as determined by AT8 immunohistochemistry) and age-matched non-AD control donors (N = 6, devoid of tau NFTs and beta-amyloid neuritic plaques as determined by immunohistochemistry). Brains slices were obtained from the National Disease Research Interchange (Philadelphia, PA).

For series [7], the target named is T4, MAO-B microsomes (Homo sapiens, UniProt P27338).
T4 sequence (P27338 1-520): T1 sequence (P27338 1-520)
The series can be described thus: Competition binding, displacement of safinamide from MAO-B microsomes (LC-MS). Details: purchased Sigma M7441. As to the method: IC50 values for each compound were determined by competition binding. […] IC50 values were determined by nonlinear regression analysis using GraphPad Prism.

Series [8] addresses T4, MAO-B microsomes. The series can be described thus: LC-MS direct saturation binding to MAO-B microsomes.
The mark [9] stands for this setting: NSB defined as binding to control microsomes.
[10] abbreviates: NSB defined with 10 μM deprenyl.

Chain of isolated human PHF (P10636 623-695 limits assumed): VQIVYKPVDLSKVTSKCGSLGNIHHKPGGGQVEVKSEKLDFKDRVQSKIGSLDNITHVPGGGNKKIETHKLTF

By Kd is commonly meant the constant that tells how readily two partners part at equilibrium. In the case of `CNc1ccc(-c2ccc3cc(OC[C@H](O)CF)ccc3n2)cn1` [[^18F]THK5351], the equilibrium dissociation constant (Kd) was found to be 37 ± 1.8 nM in series [1] (setting [9]), 40 ± 0.7 nM in series [1] (NSB defined with 1 μM THK5351) and 39 ± 1.1 nM in series [1] (setting [10]).

Consider `CNc1ccc(-c2ccc3cc(OC[C@H](O)C[18F])ccc3n2)cn1` [[^18F]THK5351], for which the Bmax in series [1] (setting [9]) is on record as 49 ± 6.3 pmol ligand/mg total protein; in series [1] (NSB defined with 1 μM THK5351), 54 ± 3.4 pmol ligand/mg total protein; in series [1] (setting [10]) it was 51 ± 5.5 pmol ligand/mg total protein.

Take `Fc1ccc(-c2ccc3c(c2)[nH]c2ccncc23)cn1` [[^18F]flortaucipir]: the Kd amounted to 2 nM in series [2] and 0.57 nM in series [3].

`[18F]c1ccc(-c2ccc3c(c2)[nH]c2ccncc23)cn1` [[^18F]flortaucipir]: the “effect of pargyline pre-treatment on brain uptake and clearance” value in series [4] (rats, control vs pargyline 50 mg/kg) was “nearly identical brain uptake with rapid clearance in both the control and pargyline groups”. Besides, the “fraction of [^18F]flortaucipir bound to normal brain sections that was displaced” value in series [5] (mild wash conditions, remainder non-specific and non-saturable) is given as “approximately 50%”. Further, the “specific binding to MAO-B (radioligand saturation)” value in series [1] (MAO-B microsomes vs control microsomes or 10 μM deprenyl) is reported as “no specific binding; also recorded: no significant binding”. The “saturability of autoradiography signal on AD tissue” value in series [6] is listed as “saturable”. The “saturability of off-target binding, mild wash” value in series [6] (mild wash, AD and control tissue, 1 μM flortaucipir) is on record as “only partially saturable”. Further, the “[^18F]flortaucipir binding on tissue, mild wash” value in series [6] (mild washing (PBS), frontal cortex and striatum) is “observed on both AD and control tissues”. Besides, the “[^18F]flortaucipir binding on tissue, stringent wash” value in series [6] (stringent washing (30% and 70% EtOH), frontal cortex and striatum) is recorded as “observed only on tau NFT-rich AD tissue, not on control tissue”.

For the compound `Cc1nccc2c1[nH]c1cc(OCC[18F])ccc12` [[^18F]fluoroethyl-harmol], the “brain activity at 110 min” value in series [4] (control rats, 110 min) was determined as 2.1 %ID/g. In addition, the peak brain activity is 2.3 %ID/g in series [4] (control rats, i.v.) and 2.4 %ID/g in series [4] (pargyline 50 mg/kg i.p. pre-treated rats). Besides, the “brain activity after washout” value in series [4] (pargyline 50 mg/kg i.p. pre-treated rats, by 20 min) was 1.0 %ID/g.

As a reminder, the IC50 is the midpoint of a concentration-inhibition curve. In the case of `Fc1ccc(-c2ccc3c(c2)[nH]c2ccncc23)cn1` [flortaucipir], the IC50 in series [5] was 270 nM; in series [7], 1300 nM. Further, in series [8] (higher flortaucipir concentrations), the “specific binding to MAO-B (LC-MS saturation)” value was “no specific binding was observed”.

As to `Cc1nccc2c1[nH]c1cc(OCCF)ccc12` [fluoroethyl-harmol], the IC50 in series [5] was 780 nM; in series [7] (read-out: IC50, displacement of safinamide, 30 nM safinamide, 10 μg MAO-B microsomes) it was greater than 10000 nM.

Turning to `C[C@H](NCc1ccc(OCc2cccc(F)c2)cc1)C(N)=O` [safinamide], the IC50 in series [5] is no less than 10000 nM. The Bmax in series [8] (LC-MS, NSB = control microsome) is given as 446 pmol ligand/mg total protein.
